{"source": "patent US20110230431A1", "about": "“FOSFOMYCIN/TOBRAMYCIN COMBINATIONS FOR THE TREATMENT AND PREVENTION OF OPHTHALMIC, OTOLOGICAL AND DERMATOLOGICAL INFECTIONS” (Gilead Sciences, Inc., priority 2008, published 2011)", "key": {"[1]": {"system": "P. aeruginosa", "experiment": "MIC by agar plate dilution method (CLSI)", "assay_type": "cell-based, Pseudomonas aeruginosa", "settings": "Pseudomonas aeruginosa, read-out: MIC", "description": "(§1) P. aeruginosa strains isolated from patients with cystic fibrosis (CF) were obtained from Children's Hospital and Regional Medical Center (Seattle, Wash.). Clinical isolates of Escherichia coli and Staphylococcus aureus were obtained from The Jones Group Laboratories (JMI; North Liberty, Iowa) and The Clinical Microbiology Institute (CMI; Wilsonville, Oreg.). P. aeruginosa 27853, S. aureus 29213, and E. coli 25922 served as quality control strains^1 and were obtained from The America Type Culture Collection (ATCC; Manassas, Va.). P. aeruginosa ATCC 27853, a fosfomycin and tobramycin susceptible strain, was used in macromolecular biosynthesis and tobramycin uptake experiments. Stock cultures were maintained at −80° C. in Cation-Adjusted Mueller-Hinton Broth (CAMHB) (Remel; Lenexa, Kans.) supplemented with 20% glycerol (VWR: West Chester, Pa.). Cultures for routine use were grown on tryptic soy agar plates+5% sheeps blood (PML Microbiologicals Inc.; Wilsonville, Oreg.) and stored at 4° C.\n(§2) MICs were determined by the agar plate dilution method according to CLSI guidelines (National Committee for Clinical Laboratory Standards. M7-A6. 6th ed. Villanova (Pa.): NCCLS, 2003; M100-S14. Villanova (Pa.): NCCLS, 2004)."}, "[2]": {"system": "E. coli", "experiment": "MIC by agar plate dilution method (CLSI)", "assay_type": "cell-based, Escherichia coli", "settings": "Escherichia coli, read-out: MIC", "description": "as §1, §2"}, "[3]": {"system": "S. aureus", "assay_type": "cell-based, Staphylococcus aureus", "experimental": "(§3) Development of resistance after a single exposure to antibiotic was determined for both clinical and reference isolates of P. aeruginosa, S. aureus, and E. coli. Late Log-phase cultures were centrifuged at 1,400×g at room temperature for 20 min and the cell pellets resuspended in CAMHB. […] The culture plates were incubated at 37° C. for 48 h and the number of colonies on each plate was enumerated manually. The spontaneous mutation frequency (SMF) resulting in antibiotic resistance was calculated by dividing the number of bacteria growing at the defined antibiotic concentration by the number of bacteria in the inoculum (Martinex, J L, Antimicrob Agents Chemother 2000; 44 (1):1771-1777)."}, "[4]": {"system": "P. aeruginosa", "assay_type": "cell-based, Pseudomonas aeruginosa", "experimental": "as §3"}, "[5]": {"system": "Protein Synthesis in P. aeruginosa ATCC 27853", "experiment": "Macromolecular biosynthesis: 3H-amino acid incorporation", "assay_type": "cell-based, Pseudomonas aeruginosa", "experimental": "Picataway, N.J.) and N-acetyl-D-Glucosamine (^3H-NAG) (GE Healthcare Bio-Sciences), respectively (Baum, E Z, Antimicrob Agents Chernother 2001; 45 (11): 3182-3188). A single colony of P. aeruginosa ATCC 27853 was inoculated into 10 mL of CAMHB and incubated for 16 h, at 37° C., 200 rpm in a shaking water bath. […] At various time points, 100 μl aliquots (triplicate) of culture were removed and added to 100 μl of 20% TCA (VWR) in 96-well flat bottom trays (VWR). Plates were incubated on crushed ice for 60 min to precipitate the incorporated ^3H-precursors. Samples were harvested onto glass fibre filters (GFC) (PerkinElmer; Waltham, Mass.). Filters were washed two times with 35 mL of normal saline to remove unincorporated isotope followed by one wash with 35 mL of 90% ETOH (VWR). Filters were dried under a lamp for 1 h to reduce remaining moisture and then sealed in bags containing 5 mL of scintillation cocktail (Betaplate Scint; PerkinElmer). Counts per minute (CPM) were determined using a Wallac MicroBeta Trilux (PerkinElmer). Mean CPM±standard deviation (SD) were determined for each treatment group. Background counts consisting of a media-only sample were subtracted from the no-drug and antibiotic treatment groups. The percent inhibition of incorporation was determined relative to the no-drug controls. The activities of the three drugs were compared by calculating the time to 50% inhibition (T1/2), and statistical differences at each time point were evaluated by the Analysis of Variance (ANOVA; GraphPad Prisma software package 3.03; GraphPad Software, Inc., San Diego, Calif.). Each curve represents 4 replicate experiments, each time point performed in triplicate."}, "[6]": {"system": "P. aeruginosa ATCC 27853", "experiment": "Time-kill experiments in CAMHB with 2% mucin", "assay_type": "cell-based, Pseudomonas aeruginosa", "experimental": "Time-kill experiments were performed according to a modified CLSI method (National Committee for Clinical Laboratory Standards. M-26A. Villanova (Pa.): NCCLS, 1999). […] Bacterial cultures and antibiotic(s) were incubated at 37° C. in a shaking water bath (200 rpm) and killing activity assessed at 0, 1, 2, 4, 6 and 24 h. Antibiotics that reduced the original inoculum by ≧3-Log10 were considered bactericidal. Antibiotics that reduced the original inoculum by ≦2-Log10 were considered bacteriostatic."}}, "note": "Read-outs that look alike come from different tables or passages of the source.", "data": [{"smiles": "C[C@@H]1O[C@@H]1P(=O)(O)O", "note": "[Fosfomycin, fosfomycin disodium]", "values": [{"measurement": "MIC", "setting": "[1]; ATCC27853, P. aeruginosa ATCC 27853", "result": 4, "unit": "µg/mL"}, {"measurement": "MIC", "setting": "[1]; P. aeruginosa C002", "result": 4, "unit": "µg/mL"}, {"measurement": "MIC", "setting": "[1]; P. aeruginosa C003", "result": 16, "unit": "µg/mL"}, {"measurement": "MIC", "setting": "[1]; P. aeruginosa C013", "result": 32, "unit": "µg/mL"}, {"measurement": "MIC", "setting": "[1]; P. aeruginosa C014", "result": 8, "unit": "µg/mL"}, {"measurement": "MIC", "setting": "[2]; ATCC25922, E. coli ATCC 25922", "result": 2, "unit": "µg/mL"}, {"measurement": "MIC", "setting": "[2]; E. coli C032", "result": 1, "unit": "µg/mL"}, {"measurement": "MIC", "setting": "[2]; E. coli C036", "result": 2, "unit": "µg/mL"}, {"measurement": "MIC", "setting": "[2]; E. coli C037", "result": 1, "unit": "µg/mL"}, {"measurement": "MIC", "setting": "[2]; E. coli C294", "result": 0.5, "unit": "µg/mL"}, {"measurement": "Frequency of Resistance 4× MIC", "setting": "[3]; S. aureus ATCC 29213, 4× MIC", "result": "2.6 × 10^−8"}, {"measurement": "Frequency of Resistance 8× MIC", "setting": "[3]; S. aureus ATCC 29213, 8× MIC", "result": "5.0 × 10^−8"}, {"measurement": "Frequency of Resistance 16× MIC", "setting": "[3]; S. aureus ATCC 29213, 16× MIC", "result": "<1.8 × 10^−10"}, {"measurement": "Frequency of Resistance 4× MIC", "setting": "[3]; S. aureus C051, 4× MIC", "result": "3.0 × 10^−5"}, {"measurement": "Frequency of Resistance 8× MIC", "setting": "[3]; S. aureus C051, 8× MIC", "result": "3.6 × 10^−7"}, {"measurement": "Frequency of Resistance 16× MIC", "setting": "[3]; S. aureus C051, 16× MIC", "result": "8.4 × 10^−6"}, {"measurement": "Frequency of Resistance 4× MIC", "setting": "[3]; S. aureus C053, 4× MIC", "result": "7.7 × 10^−3"}, {"measurement": "Frequency of Resistance 8× MIC", "setting": "[3]; S. aureus C053, 8× MIC", "result": "1.7 × 10^−7"}, {"measurement": "Frequency of Resistance 16× MIC", "setting": "[3]; S. aureus C053, 16× MIC", "result": "4.3 × 10^−6"}, {"measurement": "Frequency of Resistance 4× MIC", "setting": "[3]; S. aureus C055, 4× MIC", "result": "2.5 × 10^−6"}, {"measurement": "Frequency of Resistance 8× MIC", "setting": "[3]; S. aureus C055, 8× MIC", "result": "<4.3 × 10^−9"}, {"measurement": "Frequency of Resistance 16× MIC", "setting": "[3]; S. aureus C055, 16× MIC", "result": "8.2 × 10^−6"}, {"measurement": "Frequency of Resistance 4× MIC", "setting": "[3]; S. aureus C057, 4× MIC", "result": "2.1 × 10^−5"}, {"measurement": "Frequency of Resistance 8× MIC", "setting": "[3]; S. aureus C057, 8× MIC", "result": "1.1 × 10^−7"}, {"measurement": "Frequency of Resistance 16× MIC", "setting": "[3]; S. aureus C057, 16× MIC", "result": "2.0 × 10^−7"}, {"measurement": "Frequency of Resistance 4× MIC", "setting": "[4]; P. aeruginosa ATCC 27853, 4× MIC", "result": "7.2 × 10^−4"}, {"measurement": "Frequency of Resistance 8× MIC", "setting": "[4]; P. aeruginosa ATCC 27853, 8× MIC", "result": "1.1 × 10^−5"}, {"measurement": "Frequency of Resistance 16× MIC", "setting": "[4]; P. aeruginosa ATCC 27853, 16× MIC", "result": "7.2 × 10^−5"}, {"measurement": "Frequency of Resistance 4× MIC", "setting": "[4]; P. aeruginosa C002, 4× MIC", "result": "6.5 × 10^−3"}, {"measurement": "Frequency of Resistance 8× MIC", "setting": "[4]; P. aeruginosa C002, 8× MIC", "result": "1.1 × 10^−4"}, {"measurement": "Frequency of Resistance 16× MIC", "setting": "[4]; P. aeruginosa C002, 16× MIC", "result": "4.6 × 10^−4"}, {"measurement": "Frequency of Resistance 4× MIC", "setting": "[4]; P. aeruginosa C003, 4× MIC", "result": "1.1 × 10^−6"}, {"measurement": "Frequency of Resistance 8× MIC", "setting": "[4]; P. aeruginosa C003, 8× MIC", "result": "9.0 × 10^−5"}, {"measurement": "Frequency of Resistance 16× MIC", "setting": "[4]; P. aeruginosa C003, 16× MIC", "result": "1.3 × 10^−4"}, {"measurement": "Frequency of Resistance 4× MIC", "setting": "[4]; P. aeruginosa C013, 4× MIC", "result": "9.2 × 10^−3"}, {"measurement": "Frequency of Resistance 8× MIC", "setting": "[4]; P. aeruginosa C013, 8× MIC", "result": "1.3 × 10^−5"}, {"measurement": "Frequency of Resistance 16× MIC", "setting": "[4]; P. aeruginosa C013, 16× MIC", "result": "1.3 × 10^−7"}, {"measurement": "Frequency of Resistance 4× MIC", "setting": "[4]; P. aeruginosa C014, 4× MIC", "result": "1.4 × 10^−4"}, {"measurement": "Frequency of Resistance 8× MIC", "setting": "[4]; P. aeruginosa C014, 8× MIC", "result": "1.3 × 10^−6"}, {"measurement": "Frequency of Resistance 16× MIC", "setting": "[4]; P. aeruginosa C014, 16× MIC", "result": "1.8 × 10^−6"}, {"measurement": "time to 50% inhibition (T1/2) of protein synthesis", "setting": "[5]; 6.4 μg/mL (FIG. 5)", "result": 2.42, "unit": "h"}, {"measurement": "inhibition at 3.2 µg/mL", "setting": "[5]; Pseudomonas aeruginosa, ATCC27853, 3.2 μg/mL, at 2 h relative to no-drug control, single experiment", "result": 0, "unit": "%"}, {"measurement": "inhibition at 6.4 µg/mL", "setting": "[5]; Pseudomonas aeruginosa, ATCC27853, 6.4 μg/mL, at 2 h relative to no-drug control, single experiment", "result": 21, "unit": "%"}, {"measurement": "inhibition at 12.8 µg/mL", "setting": "[5]; Pseudomonas aeruginosa, ATCC27853, 12.8 μg/mL, at 2 h relative to no-drug control, single experiment", "result": 9, "unit": "%"}, {"measurement": "killing activity at 24 h", "setting": "[6]; 24 h, FT4:1 16 μg/mL, fosfomycin 12.8 μg/mL, tobramycin 3.2 μg/mL, mucin, FIG. 4", "result": "re-growth of the bacterial culture"}, {"measurement": "killing activity", "setting": "[6]; FT4:1 at 4×MIC (16 μg/mL), component weights fosfomycin 12.8 μg/mL, tobramycin 3.2 μg/mL, mucin, FIG. 4", "result": "bacteriostatic killing"}, {"measurement": "killing activity (bactericidal ≧3-Log10, bacteriostatic ≦2-Log10)", "setting": "[6]; multiples of the MIC, FIG. 1-3", "result": "bacteriostatic"}]}]}
